Source: paper PMC7377239, “Cardiovascular Effects of Polychlorinated Biphenyls and Their Major Metabolites” (Environmental Health Perspectives, 2020)
Like-named read-outs stand apart in the source and are kept apart here.

Tested on: iCell cardiomyocytes (human iPSC-derived cardiomyocytes)
Assay: Intracellular Ca2+ flux / beating parameters in iCell cardiomyocytes (FLIPR tetra), 90 min or 24 h
Assay type: cell-based
Conditions: Homo sapiens, Cardiomyocyte, 0.00 µM = 100.00; for activity at 0.1 µM: 0.10 µM
In short: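 PODs were defined as the concentration crossing one SD of the vehicle-control means (0.5% DMSO) on four-parameter logistic fits of Ca2+ trace metrics (peak height, frequency, peak-spacing CV, decay/rise ratio). Traces came from 100 s, 8 Hz FLIPR reads at 37 °C on calcium-dye-loaded iCell cardiomyocytes. Before reading, cells were treated for 90 min or 24 h from 5× chemical plates spanning 0.05–500 µM, in triplicate.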

[1] = 1.5 h, 90min, read-out: cm.amp.avg.90min
[2] = 1.5 h, 90min, read-out: cm.amp.cv.90min
[3] = 1.5 h, 90min, read-out: cm.bpm.90min
[4] = 1.5 h, 90min, read-out: cm.decay.rise.90min
[5] = 1.5 h, 90min, read-out: cm.spacing.cv.90min
[6] = 24 h, 24hrs, read-out: cm.amp.avg.24hrs
[7] = 24 h, 24hrs, read-out: cm.amp.cv.24hrs
[8] = 24 h, 24hrs, read-out: cm.bpm.24hrs
[9] = 24 h, 24hrs, read-out: cm.decay.rise.24hrs
[10] = 24 h, 24hrs, read-out: cm.spacing.cv.24hrs

## Clc1ccc(Cl)c(-c2cc(Cl)ccc2Cl)c1 [PCB52]
[1]
  activity at 0.01 µM: 97.9%
  activity at 0.1 µM: 101%
  activity at 1 µM: 105%
  activity at 10 µM: 96.6%
  activity at 100 µM: 44.4%
[2]
  activity at 0.01 µM: 90.9%
  activity at 0.1 µM: 102%
  activity at 1 µM: 111%
  activity at 10 µM: 99.4%
  activity at 100 µM: 73%
[3]
  activity at 0.01 µM: 102%
  activity at 0.1 µM: 99.1%
  activity at 1 µM: 97.8%
  activity at 10 µM: 99.1%
  activity at 100 µM: 0%
[4]
  activity at 0.01 µM: 101%
  activity at 0.1 µM: 101%
  activity at 1 µM: 102%
  activity at 10 µM: 111%
  activity at 100 µM: 42.8%
[5]
  activity at 0.01 µM: 93.9%
  activity at 0.1 µM: 98.6%
  activity at 1 µM: 91%
  activity at 10 µM: 102%
  activity at 100 µM: 71.6%
[6]
  activity at 0.01 µM: 86.6%
  activity at 0.1 µM: 84.6%
  activity at 1 µM: 51.8%
  activity at 10 µM: 86.5%
  activity at 100 µM: 0%
[7]
  activity at 0.01 µM: 98.1%
  activity at 0.1 µM: 95.6%
  activity at 1 µM: 42.2%
  activity at 10 µM: 119%
  activity at 100 µM: 0%
[8]
  activity at 0.01 µM: 96.4%
  activity at 0.1 µM: 90.7%
  activity at 1 µM: 46.8%
  activity at 10 µM: 93.6%
  activity at 100 µM: 0%
[9]
  activity at 0.01 µM: 111%
  activity at 0.1 µM: 108%
  activity at 1 µM: 55.5%
  activity at 10 µM: 127%
  activity at 100 µM: 0%
[10]
  activity at 0.01 µM: 109%
  activity at 0.1 µM: 89.3%
  activity at 1 µM: 44.5%
  activity at 10 µM: 98.5%
  activity at 100 µM: 0%

## Clc1ccc(Cl)c(-c2c(Cl)ccc(Cl)c2Cl)c1 [PCB95]
[1]
  activity at 0.01 µM: 91.5%
  activity at 0.1 µM: 99.9%
  activity at 1 µM: 84.6%
  activity at 10 µM: 101%
  activity at 100 µM: 9.49%
[2]
  activity at 0.01 µM: 105%
  activity at 0.1 µM: 86.3%
  activity at 1 µM: 116%
  activity at 10 µM: 120%
  activity at 100 µM: 441%
[3]
  activity at 0.01 µM: 99.1%
  activity at 0.1 µM: 96.5%
  activity at 1 µM: 85.3%
  activity at 10 µM: 86.5%
  activity at 100 µM: 0%
[4]
  activity at 0.01 µM: 101%
  activity at 0.1 µM: 103%
  activity at 1 µM: 109%
  activity at 10 µM: 120%
  activity at 100 µM: 36.2%
[5]
  activity at 0.01 µM: 118%
  activity at 0.1 µM: 104%
  activity at 1 µM: 92%
  activity at 10 µM: 120%
  activity at 100 µM: 78.1%
[6]
  activity at 0.01 µM: 115%
  activity at 0.1 µM: 181%
  activity at 1 µM: 76.5%
  activity at 10 µM: 144%
  activity at 100 µM: 0%
[7]
  activity at 0.01 µM: 139%
  activity at 0.1 µM: 73.7%
  activity at 1 µM: 36.8%
  activity at 10 µM: 77.4%
  activity at 100 µM: 0%
[8]
  activity at 0.01 µM: 110%
  activity at 0.1 µM: 113%
  activity at 1 µM: 43.9%
  activity at 10 µM: 79.2%
  activity at 100 µM: 0%
[9]
  activity at 0.01 µM: 92.5%
  activity at 0.1 µM: 99.1%
  activity at 1 µM: 54.1%
  activity at 10 µM: 109%
  activity at 100 µM: 0%
[10]
  activity at 0.01 µM: 142%
  activity at 0.1 µM: 137%
  activity at 1 µM: 61.3%
  activity at 10 µM: 127%
  activity at 100 µM: 0%

## Clc1ccc(-c2cc(Cl)c(Cl)c(Cl)c2)cc1Cl [PCB126]
[1]
  activity at 0.01 µM: 100%
  activity at 0.1 µM: 102%
  activity at 1 µM: 102%
  activity at 10 µM: 90.3%
  activity at 100 µM: 117%
[2]
  activity at 0.01 µM: 110%
  activity at 0.1 µM: 139%
  activity at 1 µM: 114%
  activity at 10 µM: 363%
  activity at 100 µM: 120%
[3]
  activity at 0.01 µM: 107%
  activity at 0.1 µM: 97.8%
  activity at 1 µM: 105%
  activity at 10 µM: 128%
  activity at 100 µM: 135%
[4]
  activity at 0.01 µM: 102%
  activity at 0.1 µM: 99.8%
  activity at 1 µM: 96%
  activity at 10 µM: 83%
  activity at 100 µM: 86.2%
[5]
  activity at 0.01 µM: 135%
  activity at 0.1 µM: 119%
  activity at 1 µM: 115%
  activity at 100 µM: 106%
[6]
  activity at 0.01 µM: 73.3%
  activity at 0.1 µM: 79.8%
  activity at 1 µM: 72.2%
  activity at 10 µM: 78.8%
  activity at 100 µM: 20.9%
[7]
  activity at 0.01 µM: 143%
  activity at 0.1 µM: 120%
  activity at 1 µM: 128%
  activity at 10 µM: 38.8%
  activity at 100 µM: 121%
[8]
  activity at 0.01 µM: 100%
  activity at 0.1 µM: 100%
  activity at 1 µM: 104%
  activity at 10 µM: 68.7%
  activity at 100 µM: 70.6%
[9]
  activity at 0.01 µM: 101%
  activity at 0.1 µM: 109%
  activity at 1 µM: 97.6%
  activity at 10 µM: 50%
  activity at 100 µM: 29.1%
[10]
  activity at 0.01 µM: 122%
  activity at 0.1 µM: 117%
  activity at 1 µM: 113%
  activity at 10 µM: 66.1%
  activity at 100 µM: 81%
